Assay results published in US8211915B2, “Biphenyl compounds useful as muscarinic receptor antagonists” (Theravance, Inc., priority 2004, dated 2012).

Target: T1, hM3 muscarinic receptor subtype (Homo sapiens, UniProt P20309)
T1 construct: expressed in transfected cells; crude membranes prepared in house
Assay: Radioligand binding assay ([3H]-NMS displacement)
Conditions: [3H]-NMS 1 nM, CHO cell membranes, 60 minutes at 37° C.; read-out: Ki value for the M3 muscarinic receptor subtype
Procedure: A. Membrane Preparation from Cells Expressing hM1, hM2, hM3 and hM4 Muscarinic Receptor Subtypes
CHO cell lines stably expressing cloned human hM1, hM2, hM3 and hM4 muscarinic receptor subtypes, respectively, were grown to near confluency in medium consisting of HAM's F-12 supplemented with 10% FBS and 250 μg/mL Geneticin. The cells were grown in a 5% CO2, 37° C. incubator and lifted with 2 mM EDTA in dPBS. Cells were collected by 5 minute centrifugation at 650×g, and cell pellets were either stored frozen at −80° C. or membranes were prepared immediately. For membrane preparation, cell pellets were resuspended in lysis buffer and homogenized with a Polytron PT-2100 tissue disrupter (Kinematica AG; 20 seconds×2 bursts). […] The protein concentration of the membrane suspension was determined by the method described in Lowry, O. et al., […] 193:265 (1951). […]
Radioligand binding assays were performed in 96-well microtiter plates in a total assay volume of 100 μL. […] Filter plates were rinsed three times with wash buffer (10 mM HEPES) to remove unbound radioactivity. […] The plates were then counted in a PerkinElmer Topcount liquid scintillation counter (PerkinElmer Inc., Wellesley, Mass.). Binding data were analyzed by nonlinear regression analysis with the GraphPad Prism Software package (GraphPad Software, Inc., San Diego, Calif.) using the one-site competition model. […]

T1 sequence (P20309 whole entry): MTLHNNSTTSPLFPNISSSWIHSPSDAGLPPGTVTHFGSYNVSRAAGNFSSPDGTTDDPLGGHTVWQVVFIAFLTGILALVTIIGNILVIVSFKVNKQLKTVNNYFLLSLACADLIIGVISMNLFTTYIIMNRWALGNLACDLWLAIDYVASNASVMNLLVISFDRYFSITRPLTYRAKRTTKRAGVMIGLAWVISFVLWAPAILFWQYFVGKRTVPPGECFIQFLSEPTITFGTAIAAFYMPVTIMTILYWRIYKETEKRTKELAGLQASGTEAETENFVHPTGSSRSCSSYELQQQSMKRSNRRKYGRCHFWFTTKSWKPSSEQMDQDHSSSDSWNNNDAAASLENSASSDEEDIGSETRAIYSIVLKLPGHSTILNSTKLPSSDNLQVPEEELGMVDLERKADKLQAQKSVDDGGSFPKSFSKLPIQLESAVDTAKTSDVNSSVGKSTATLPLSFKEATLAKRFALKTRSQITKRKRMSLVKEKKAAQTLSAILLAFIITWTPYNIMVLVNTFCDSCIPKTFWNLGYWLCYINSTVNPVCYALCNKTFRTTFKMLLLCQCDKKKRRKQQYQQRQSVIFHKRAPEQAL

Ki: < 5 nM
Compound: NC(=O)C1CCN(Cc2ccc(NC(=O)CCN3CCC(OC(=O)Nc4ccccc4-c4ccccc4)CC3)cc2)CC1 [Example 1, Biphenyl-2-ylcarbamic Acid 1-{2-[4-(4-Carbamoylpiperidin-1-ylmethyl)phenylcarbamoyl]ethyl}piperidin-4-yl Ester]
